Laboratory results taken from patent US20240360148A1 (SUVALENT THERAPEUTICS, INC., priority 2021, published 2024).

How the values were obtained:
SAE1 = SAE1 (Homo sapiens (Human), UniProt Q9UBE0+Q9UBT2); test: SAE High Throughput Biochemical Assay (HTRF), 15 min preincubation; conditions: read-out: 15 min preincubation HTRF IC50 (μM) Ave, SAE1 12.5 nM, ATP 100 μM
Outline: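 SAE1 (12.5 nM) was preincubated with compound for 15 min at RT in HEPES pH 7.5, 0.1% BSA, 10 mM MgCl2. The reaction was then started with SUMO-GST and UBC9-His (40 nM each) plus 100 μM ATP for 45 min. After KF stop, HTRF (anti-GST-XL665/anti-His-EuK) was read at 2 h and overnight; some compounds were tested singly at 25 micromolar as percent of control.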

[1] = tested on: sumoylation levels (SUMO 2/3 conjugates) in HCT-116 cells; test: HCT-116 4 Hour Cell Assay (Western, SUMO 2/3 conjugates); assay type: cell-based; conditions: Homo sapiens, HCT-116, 4 h, 4 h treatment, Anti-Sumo 2-3 immunoblot, read-out: HCT-116 Western 4 h IC50 (μM) Ave
Description: This protocol describes the procedures used to assess the effects of compounds of interest on sumoylation levels. Immunoblot of SUMO 2/3 conjugates are performed and IC50 curves are generated upon quantification of sumoylations bands. HCT-116 cells are seeded in a 12 well plate (500,000 cells/well). The following day the cells are treated with compounds of interest (resuspended in DMSO) for 4 hours (11 concentrations with a three-fold dilution; starting concentration 25 μM) Following 4 hours of incubation the cells are washed with ice cold PBS 1×and protein extraction is performed with RIPA buffer supplemented with phosphatases and proteases inhibitors, 25 mM of NEM and 50 units/mL of Benzonase. Samples undergo centrifugation at 13,000 RPM, 4° C., for 10 minutes and the supernatant is collected. Protein quantification is performed using BCA. Non-Reducing Laemmli Buffer is added to the samples. Samples are heated at 75° C. for 10 minutes, and are centrifuged for 3 minutes at 9000 RPM Nupage 4-12% Bis Tris gels and 1× MOPS buffer (Fisher Scientific)+1× NuPAGE Antioxidant (Invitrogen) are used to perform the SDS-PAGE gel electrophoresis (20 to 40 μg of proteins are loaded in the gels). Proteins are then transferred to PVDF membranes and the level of total proteins are measured by staining with Revert Total Protein Stain and the fluorescent bands are acquired using the LI-COR FC (700 nm for 1 min) Membranes are blocked for 5 minutes with Bio-Rad Blocking Buffer and are subsequently incubated over night at 4° C. with Anti-Sumo 2-3 mAb (M BL #M114-3, 1:1000 in Bio-Rad Blocking Buffer, 0.2% Tween 20) Membranes are washed with 1×TBS-T (3 times for 5 minutes) and sumoylation is detected using Li-cor IRDye 800CW Goat anti-Mouse IgG secondary antibody (1:10,000 dilution) upon 1 hour of incubation in blocking buffer with 0.2% Tween 20 and 0.01% SDS. After the incubation, the membranes are washed with 1×TBS-T (3 times for 5 minutes). To visualize the fluorescent bands the membranes are scanned with LI-COR FC (700 nm for 1 min and […] for 2 mins). Sumoylation levels are quantified upon normalization with total protein levels, using the LI-COR Image Studio Lite 5.2 Software.

SAE1, sequence (Q9UBE0 whole entry): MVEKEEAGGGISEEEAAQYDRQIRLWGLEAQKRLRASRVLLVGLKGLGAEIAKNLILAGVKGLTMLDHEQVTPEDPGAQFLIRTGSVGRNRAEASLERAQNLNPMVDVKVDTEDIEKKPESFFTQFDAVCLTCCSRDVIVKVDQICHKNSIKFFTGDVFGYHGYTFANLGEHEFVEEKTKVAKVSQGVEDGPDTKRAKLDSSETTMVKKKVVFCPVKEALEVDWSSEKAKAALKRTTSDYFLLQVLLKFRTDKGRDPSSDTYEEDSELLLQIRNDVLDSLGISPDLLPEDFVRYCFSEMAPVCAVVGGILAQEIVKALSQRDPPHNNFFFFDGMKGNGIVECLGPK
SAE1, sequence (Q9UBT2 whole entry): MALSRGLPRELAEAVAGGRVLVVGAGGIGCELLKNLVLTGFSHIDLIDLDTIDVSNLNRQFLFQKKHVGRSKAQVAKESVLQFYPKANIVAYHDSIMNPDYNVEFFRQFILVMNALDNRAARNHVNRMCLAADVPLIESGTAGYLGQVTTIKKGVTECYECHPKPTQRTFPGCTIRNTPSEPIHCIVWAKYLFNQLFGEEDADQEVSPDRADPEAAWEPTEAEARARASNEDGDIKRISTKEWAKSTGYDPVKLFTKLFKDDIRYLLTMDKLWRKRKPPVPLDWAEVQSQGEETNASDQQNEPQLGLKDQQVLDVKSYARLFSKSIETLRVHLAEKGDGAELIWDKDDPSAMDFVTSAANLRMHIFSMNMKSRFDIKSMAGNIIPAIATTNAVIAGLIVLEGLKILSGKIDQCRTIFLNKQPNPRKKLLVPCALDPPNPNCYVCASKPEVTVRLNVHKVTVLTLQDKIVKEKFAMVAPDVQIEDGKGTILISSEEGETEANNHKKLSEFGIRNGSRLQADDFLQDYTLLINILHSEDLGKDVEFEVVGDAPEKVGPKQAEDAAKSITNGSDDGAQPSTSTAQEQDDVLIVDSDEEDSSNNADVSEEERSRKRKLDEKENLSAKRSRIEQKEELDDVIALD

SMILES	IC50 (SAE1) [µM]	IC50 [1] [µM]
CCn1cc(-c2ccccc2[C@@H]2CN(C(=O)/C=C/CNC3CC3)Cc3sc(C#N)cc32)c(C(F)(F)F)n1 [Example 102, (S, E)-6-(4-(Cyclopropylamino)but-2-enoyl)-4-(2-(1-ethyl-3-(trifluoromethyl)-1 H-pyrazol-4-yl)phenyl)-4,5,6,7-tetrahydrothieno[2,3-c]pyridine-2-carbonitrile]	1.74	0.675
CCCCNC/C=C/C(=O)N1Cc2sc(C#N)cc2[C@H](c2ccccc2-c2cn(CC)nc2C(F)(F)F)C1 [Example 103, (S, E)-6-(4-(Butylamino)but-2-enoyl)-4-(2-(1-ethyl-3-(trifluoromethyl)-1 H-pyrazol-4-yl)phenyl)-4,5,6,7-tetrahydrothieno[2,3-c]pyridine-2-carbonitrile]	2.66	1.66
CCn1cc(-c2ccccc2[C@@H]2CN(C(=O)/C=C/CNCC(C)C)Cc3sc(C#N)cc32)c(C(F)(F)F)n1 [Example 104]	2.14	1.78
CCn1cc(-c2ccccc2[C@@H]2CN(C(=O)/C=C/CNC(C)C)Cc3sc(C#N)cc32)c(C(F)(F)F)n1 [Example 105, (S,E)-4-(2-(1-Ethyl-3-(trifluoromethyl)-1 H-pyrazol-4-yl)phenyl)-6-(4-(isopropylamino)but-2-enoyl)-4,5,6,7-tetrahydrothieno[2,3-c]pyridine-2-carbonitrile]	2.42	0.62
CCn1cc(-c2c(F)cccc2[C@@H]2CN(C(=O)/C=C/CNC(C)C)Cc3sc(C#N)cc32)c(C(F)(F)F)n1 [Example 106, (S,E)-4-(2-(1-Ethyl-3-(trifluoromethyl)-1H pyrazol-4-yl)-3-fluorophenyl)-6-(4-(isopropylamino)but-2-enoyl)-4,5,6,7-tetrahydrothieno[2,3-c]pyridine-2-carbonitrile]	0.8	0.283
CCn1cc(-c2ccccc2[C@@H]2CN(C(=O)/C=C/C3CCCN3)Cc3sc(C#N)cc32)c(C(F)(F)F)n1 (stereo partly drawn) [Example 107, (4S)-4-(2-(1-Ethyl-3-(trifluoromethyl)-1 H-pyrazol-4-yl)phenyl)-6-((E)-3-(pyrrolidin-2-yl)acryloyl)-4,5,6,7-tetrahydrothieno[2,3-c]pyridine-2-carbonitrile]	2.07	0.226
CCn1cc(-c2ccccc2[C@@H]2CN(C(=O)/C=C/C3CCCCN3)Cc3sc(C#N)cc32)c(C(F)(F)F)n1 (stereo partly drawn) [Example 111, (4S)-4-(2-(1-Ethyl-3-(trifluoromethyl)-1H pyrazol-4-yl)phenyl)-6-((E)-3-(piperidin-2-yl)acryloyl)-4,5,6,7-tetrahydrothieno[2,3-c]pyridine-2-carbonitrile]	3.36	0.909
CCn1cc(-c2ccccc2[C@@H]2CN(C(=O)/C=C/[C@@H]3CCCN3)Cc3sc(C#N)cc32)c(C(F)(F)F)n1 [Example 112]	0.76	0.209
CCn1cc(-c2ccccc2[C@@H]2CN(C(=O)/C=C/[C@H]3CCCN3)Cc3sc(C#N)cc32)c(C(F)(F)F)n1 [Example 113, (S)-4-(2-(1-Ethyl-3-(trifluoromethyl)-1 H-pyrazol-4-yl)phenyl)-6-((E)-3-((R)-pyrrolidin-2-yl)acryloyl)-4,5,6,7-tetrahydrothieno[2,3-c]pyridine-2-carbonitrile]	1.61	1.79
CCn1cc(-c2ccccc2[C@@H]2CN(C(=O)/C=C/[C@@H]3C[C@@H](C)CN3)Cc3sc(C#N)cc32)c(C(F)(F)F)n1 [Example 114, (S)-4-(2-(1-Ethyl-3-(trifluoromethyl)-1 H-pyrazol-4-yl)phenyl)-6-((E)-3-((2S, 4R)-4-methylpyrrolidin-2-yl)acryloyl)-4,5,6,7-tetrahydrothieno[2,3-c]pyridine-2-carbonitrile]	1.19	0.262
CCn1cc(-c2ccccc2[C@@H]2CN(C(=O)/C=C/[C@@H]3CCCCN3)Cc3sc(C#N)cc32)c(C(F)(F)F)n1 [Example 115, (S)-4-(2-(1-Ethyl-3-(trifluoromethyl)-1H pyrazol-4-yl)phenyl)-6-((E)-3-((S)-piperidin-2-yl)acryloyl)-4,5,6,7-tetrahydrothieno[2,3-c]pyridine-2-carbonitrile]	1.95	0.6
CCn1cc(-c2ccccc2[C@@H]2CN(C(=O)/C=C/[C@@H]3CC4(CC4)CN3)Cc3sc(C#N)cc32)c(C(F)(F)F)n1 [Example 116, (S)-6-((E)-3-((S)—S-Azaspiro(2.4]heptan-6-yl)acryloyl)-4-(2-(1-ethyl-3-(trifluoromethyl)-1H pyrazol-4-yl)phenyl)-4,5,6,7-tetrahydrothieno[2,3-c]pyridine-2-carbonitrile]	1.49	0.202
CCn1cc(-c2ccccc2[C@@H]2CN(C(=O)/C=C/[C@@H]3C[C@@H]4C[C@@H]4N3)Cc3sc(C#N)cc32)c(C(F)(F)F)n1 [Example 117, (S)-6-((E)-3-((1S,3S,5S)-2-Azabicyclo[3.1.0]hexan-3-yl)acryloyl)-4-(2-(1-ethyl-3-(trifluoromethyl)-1H pyrazol-4-yl)phenyl)-4,5,6,7-tetrahydrothieno[2,3-c]pyridine-2-carbonitrile]	1.16	0.427
CCn1cc(-c2c(F)cccc2[C@@H]2CN(C(=O)/C=C/[C@@H]3C[C@H](OC)CN3)Cc3sc(C#N)cc32)c(C(F)(F)F)n1 [Example 119, (S)-4-(2-(1-Ethyl-3-(trifluoromethyl)-1H pyrazol-4-yl)-3-fluorophenyl)-6-((E)-3-((2S,4S)-4-methoxypyrrolidin-2-yl)acryloyl)-4,5,6,7-tetrahydrothieno[2,3-c]pyridine-2-carbonitrile]	0.44	0.121
CCn1cc(-c2c(F)cccc2[C@@H]2CN(C(=O)/C=C/[C@@H]3C[C@@H](OC)CN3)Cc3sc(C#N)cc32)c(C(F)(F)F)n1 [Example 120, (S)-4-(2-(1-Ethyl-3-(trifluoromethyl)-1H pyrazol-4-yl)-3-fluorophenyl)-6-((E)-3-((2S,4R)-4-methoxypyrrolidin-2-yl)acryloyl)-4,5,6,7-tetrahydrothieno[2,3-c]pyridine-2-carbonitrile]	0.31	0.383
CCn1cc(-c2c(F)cccc2[C@@H]2CN(C(=O)/C=C/[C@@H]3C[C@@H](F)CN3)Cc3sc(C#N)cc32)c(C(F)(F)F)n1 [Example 121, (S)-4-(2-(1-Ethyl-3-(trifluoromethyl)-1H pyrazol-4-yl)-3-fluorophenyl)-6-((E)-3-((2S,4R)-4-fluoropyrrolidin-2-yl)acryloyl)-4,5,6,7-tetrahydrothieno[2,3-c]pyridine-2-carbonitrile]	0.43	0.577
CCn1cc(-c2c(F)cccc2[C@@H]2CN(C(=O)/C=C/[C@@H]3C[C@H](F)CN3)Cc3sc(C#N)cc32)c(C(F)(F)F)n1 [Example 122, (S)-4-(2-(1-Ethyl-3-(trifluoromethyl)-1H pyrazol-4-yl)-3-fluorophenyl)-6-((E)-3-((2S,4S)-4-fluoropyrrolidin-2-yl)acryloyl)-4,5,6,7-tetrahydrothieno[2,3-c]pyridine-2-carbonitrile]	0.12	0.0631
CCn1cc(-c2c(F)cccc2[C@@H]2CN(C(=O)/C=C/[C@@H]3C[C@@H]4C[C@@H]4N3)Cc3sc(C#N)cc32)c(C(F)(F)F)n1 [Example 123, (S)-6-((E)-3-((1S,3S,5S)-2-Azabicyclo[3.1.0]hexan-3-yl)acryloyl)-4-(2-(1-ethyl-3-(trifluoromethyl)-1H pyrazol-4-yl)-3-fluorophenyl)-4,5,6,7-tetrahydrothieno[2,3-c]pyridine-2-carbonitrile]	1.17	0.178
CCn1cc(-c2ccccc2[C@@H]2CN(C(=O)/C=C/CN)Cc3sc(C#N)cc32)c(C(F)(F)F)n1 [Example 125, (S, E)-6-(4-Aminobut-2-enoyl)-4-(2-(1-ethyl-3-(trifluoromethyl)-1 H-pyrazol-4-yl)phenyl)-4,5,6,7-tetrahydrothieno[2,3-c]pyridine-2-carbonitrile]	1.23	0.543
